Assay results taken from patent US9133220B2, “Boron-containing 5-arylidene-3,5-dihydro-4H-imidazol-4-ones” (Evrogen Joint Stock Company, priority 2012, dated 2015).
“And” between values parts separate entries of the source, which are not always exact repeats. Equal values may be shown once.

Columns and labels:
[1] = Measuring spectral characteristics (absorption and emission maxima, extinction coefficients); format: physicochemical
Protocol: (§1) To measure spectral characteristics of some compounds with the formula I weighted portions of compounds p-NH2-BDI-BF2, p-dimethylamino-BDI-BF2, p-diethylamino-BDI-BF2, p-HOBDI-BF2, di-F-p-HOBDI-BF2, p-diethylamino-BDI-dimethylaminoethenyl-BF2 and p-HOBDI-dimethylaminoethenyl-BF2 were dissolved in water, ethanol and acetonitrile. Absorption spectra were measured on Varian Cary 100 Bio spectrophotometer, fluorescence spectra were measured on Varian Cary Eclipse scanning spectrofluorometer.
The values of absorption and emission maxima and molar extinction coefficients for examples of compounds with the formula I in the indicated solvents are listed in a Table 2. Emission peaks of the investigated compounds settle into a rather wide range from 485 nm for p-HOBDI-BF2 to 598 nm for p-diethylamino-BDI-dimethylamino-ethenyl-BF2.

[2] = Quantum yield of fluorescence; format: physicochemical
Protocol: as §1
The compounds p-NH2-BDI-BF2, p-HOBDI-BF2 (anionic form), di-Fp-HOBDI-BF2 (anionic form), p-diethylamino-BDI-dimethylaminoethenyl-BF2, p-HOBDI-dimethylaminoethenyl-BF2 (anionic form) have rather high quantum yields of fluorescence in water solutions.

[3] = tested on: cell membranes of HeLa Kyoto and HEK293 cell lines; assay: Staining of cell membranes and comparison of photostability with EGFP; format: cell-based, human
Protocol: Human cell cultures HeLa and HEK293 were grown in standart conditions and analyzed by wide field fluorescent and confocal laser scanning microscopy (excitation at 488 nm, detection at 500-540 nm).
The cell staining of the cells, temporarily expressing chimer protein EGFP-XRCC (nuclear localization), was carried out by p-diethylamino-BDI-BF2 in concentration 5 μM to compare fluorescent properties of the compound p-diethylamino-BDI-BF2 to the green fluorescent protein EGFP.

[4] = Measuring spectral characteristics (absorption and emission maxima, extinction coefficients); format: physicochemical; conditions: excitation at 488 nm, detection at 500-540 nm

shift of emission and absorption spectra with change of more polar solvent (water) to less polar (ethanol, acetonitrile) [1]: hypsochromic shift
Abs. peak ([1]; acetonitrile): 493 nm
Emis. peak ([1]; acetonitrile): 553 nm
ext. coef. ([1]; acetonitrile): 54000 M⁻¹ cm⁻¹
Abs. peak ([1]; ethanol): 506 nm
Emis. peak ([1]; ethanol): 558 nm
ext. coef. ([1]; ethanol): 59000 M⁻¹ cm⁻¹
Abs. peak ([1]; water): 518 nm and 514 nm
Emis. peak ([1]; water): 562 nm
ext. coef. ([1]; water): 54000 M⁻¹ cm⁻¹
Quantum yield of fluorescence ([2]; acetonitrile): 0.34
Quantum yield of fluorescence ([2]; ethanol): 0.22
Quantum yield of fluorescence ([2]; in organic solvents): 0.2-0.35
Quantum yield of fluorescence ([2]; water): 0.05
difference in the brightness of fluorescence in water and organic phases [4]: more than 10 times
Compound: CCN(CC)c1ccc(/C=C2\N=C(C)N(C)C2=O)c(B(F)F)c1 [p-diethylamino-BDI-BF2, (Z)-4-(4-(diethylamino)-2-(difluoroboryl)benzylidene)-1,2-dimethyl-1H-imidazole-5(4H)-one]
accumulation in cell membranes [3]: accumulated in cell membranes
fluorescence after addition to the cell medium ([3]; 1-5 μM, excitation 488 nm, detection 500-540 nm): bright yellow-green fluorescence was detected, associated with intracellular membrane structues and lipid drops
